System: HIV
Test: Table 1 IC50 of the examples (assay method not given; patent concerns inhibiting HIV replication)
Assay type: cell-based
Settings: Human immunodeficiency virus 1

Row | Structure (SMILES) | IC50 [nM]
1 | Cc1ccc(-c2c3c(cc(C)c2C(OC(C)(C)C)C(=O)O)N(C(=O)c2ccc(F)c(F)c2)CC3)cc1 (stereo not drawn) [Example 3, 2-(tert-Butoxy)-2-(1-(3,4-difluorobenzoyl)-6-methyl-4-(p-tolyl)indolin-5-yl)acetic acid] | 12
2 | Cc1ccc(-c2c3c(cc(C)c2C(OC(C)(C)C)C(=O)O)N(C2CCCCC2)CC3)cc1 (stereo not drawn) [Example 4, 2-(tert-Butoxy)-2-(1-cyclohexyl-6-methyl-4-(p-tolyl)indolin-5-yl)acetic acid] | 7520
3 | Cc1ccc(-c2c3c(cc(C)c2C(OC(C)(C)C)C(=O)O)N(C(=O)C(=O)N2CCCCC2)CC3)cc1 (stereo not drawn) [Example 5, 2-(tert-Butoxy)-2-(6-methyl-1-(2-oxo-2-(piperidin-1-yl)acetyl)-4-(p-tolyl)indolin-5-yl)acetic acid] | 343
4 | Cc1ccc(-c2c3c(cc(C)c2C(OC(C)(C)C)C(=O)O)N(C(=O)N2CCCCC2)CC3)cc1 (stereo not drawn) [Example 6, 2-(tert-Butoxy)-2-(6-methyl-1-(piperidine-1-carbonyl)-4-(p-tolyl)indolin-5-yl)acetic acid] | 369
5 | Cc1ccc(-c2c3c(cc(C)c2C(OC(C)(C)C)C(=O)O)N(C(=O)Nc2ccc(F)cc2)CC3)cc1 (stereo not drawn) [Example 7, 2-(tert-Butoxy)-2-(1-((4-fluorophenyl)carbamoyl)-6-methyl-4-(p-tolyl)indolin-5-yl)acetic acid] | 3010
6 | Cc1ccc(-c2c3c(cc(C)c2C(OC(C)(C)C)C(=O)O)N(C(=O)C2CCCCC2)CC3)cc1 (stereo not drawn) [Example 8, 2-(tert-Butoxy)-2-(1-(cyclohexanecarbonyl)-6-methyl-4-(p-tolyl)indolin-5-yl)acetic acid] | 15
7 | Cc1ccc(-c2c3c(cc(C)c2[C@H](OC(C)(C)C)C(=O)O)N(C(=O)c2ccc(C)cc2C)CC3)cc1 [Example 9, (S)-2-(tert-Butoxy)-2-(1-(2,4-dimethylbenzoyl)-6-methyl-4-(p-tolyl)indolin-5-yl)acetic acid] | 11
8 | COc1ccc(C(=O)N2CCc3c2cc(C)c([C@H](OC(C)(C)C)C(=O)O)c3-c2ccc(C)cc2)c(C)c1 [Example 10, (S)-2-(tert-Butoxy)-2-(1-(4-methoxy-2-methylbenzoyl)-6-methyl-4-(p-tolyl)indolin-5-yl)acetic acid] | 12
9 | COc1ccc(C(=O)N2CCc3c2cc(C)c([C@H](OC(C)(C)C)C(=O)O)c3-c2ccc(C)cc2)cc1F [Example 11, (S)-2-(tert-Butoxy)-2-(1-(3-fluoro-4-methoxybenzoyl)-6-methyl-4-(p-tolyl)indolin-5-yl)acetic acid] | 4
10 | COc1cc(C(=O)N2CCc3c2cc(C)c([C@H](OC(C)(C)C)C(=O)O)c3-c2ccc(C)cc2)cc(F)c1F [Example 12, (S)-2-(tert-Butoxy)-2-(1-(3,4-difluoro-5-methoxybenzoyl)-6-methyl-4-(p-tolyl)indolin-5-yl)acetic acid] | 4
11 | COc1ccc(C(=O)N2CCc3c2cc(C)c([C@H](OC(C)(C)C)C(=O)O)c3-c2ccc(C)cc2)cc1 [Example 13, (S)-2-(tert-Butoxy)-2-(1-(4-methoxybenzoyl)-6-methyl-4-(p-tolyl)indolin-5-yl)acetic acid] | 11
12 | Cc1ccc(-c2c3c(cc(C)c2[C@H](OC(C)(C)C)C(=O)O)N(C(=O)c2ccc(F)cc2)CC3)cc1 [Example 14, (S)-2-(tert-Butoxy)-2-(1-(4-fluorobenzoyl)-6-methyl-4-(p-tolyl)indolin-5-yl)acetic acid] | 7
13 | COc1c(F)ccc(F)c1C(=O)N1CCc2c1cc(C)c([C@H](OC(C)(C)C)C(=O)O)c2-c1ccc(C)cc1 [Example 15, (S)-2-(tert-Butoxy)-2-(1-(3,6-difluoro-2-methoxybenzoyl)-6-methyl-4-(p-tolyl)indolin-5-yl)acetic acid] | 117
14 | COc1cccc(C(=O)N2CCc3c2cc(C)c([C@H](OC(C)(C)C)C(=O)O)c3-c2ccc(C)cc2)c1 [Example 16, (S)-2-(tert-Butoxy)-2-(1-(3-methoxybenzoyl)-6-methyl-4-(p-tolyl)indolin-5-yl)acetic acid] | 12
15 | COc1ccccc1C(=O)N1CCc2c1cc(C)c([C@H](OC(C)(C)C)C(=O)O)c2-c1ccc(C)cc1 [Example 17, (S)-2-(tert-Butoxy)-2-(1-(2-methoxybenzoyl)-6-methyl-4-(p-tolyl)indolin-5-yl)acetic acid] | 11
16 | Cc1ccc(-c2c3c(cc(C)c2[C@H](OC(C)(C)C)C(=O)O)N(C(=O)c2ccccc2F)CC3)cc1 [Example 18, (S)-2-(tert-Butoxy)-2-(1-(2-fluorobenzoyl)-6-methyl-4-(p-tolyl)indolin-5-yl)acetic acid] | 11
17 | Cc1ccc(-c2c3c(cc(C)c2[C@H](OC(C)(C)C)C(=O)O)N(C(=O)c2ccc(F)cc2Cl)CC3)cc1 [Example 19, (S)-2-(tert-Butoxy)-2-(1-(2-chloro-4-fluorobenzoyl)-6-methyl-4-(p-tolyl)indolin-5-yl)acetic acid] | 5
18 | COc1cccc(C(=O)N2CCc3c2cc(C)c([C@H](OC(C)(C)C)C(=O)O)c3-c2ccc(C)cc2)c1F [Example 20, (S)-2-(tert-Butoxy)-2-(1-(2-fluoro-3-methoxybenzoyl)-6-methyl-4-(p-tolyl)indolin-5-yl)acetic acid] | 66

Row | Structure (SMILES) | IC50 [nM]
19 | COc1cc(F)ccc1C(=O)N1CCc2c1cc(C)c([C@H](OC(C)(C)C)C(=O)O)c2-c1ccc(C)cc1 [Example 21, (S)-2-(tert-Butoxy)-2-(1-(4-fluoro-2-methoxybenzoyl)-6-methyl-4-(p-tolyl)indolin-5-yl)acetic acid] | 9
20 | Cc1ccc(-c2c3c(cc(C)c2[C@H](OC(C)(C)C)C(=O)O)N(C(=O)c2ccc(Cl)cc2)CC3)cc1 [Example 22, (S)-2-(tert-Butoxy)-2-(1-(4-chlorobenzoyl)-6-methyl-4-(p-tolyl)indolin-5-yl)acetic acid] | 11
21 | Cc1ccc(-c2c3c(cc(C)c2[C@H](OC(C)(C)C)C(=O)O)N(C(=O)OC(C)(C)C)CC3)cc1 [Example 24, (S)-2-(tert-Butoxy)-2-(1-(tert-butoxycarbonyl)-6-methyl-4-(p-tolyl)indolin-5-yl)acetic acid] | 47
22 | Cc1ccc(-c2c3c(cc(C)c2[C@H](OC(C)(C)C)C(=O)O)N(C(=O)CC2CCCCC2)CC3)cc1 [Example 25, (S)-2-(tert-Butoxy)-2-(1-(2-cyclohexylacetyl)-6-methyl-4-(p-tolyl)indolin-5-yl)acetic acid] | 43
23 | Cc1ccc(-c2c3c(cc(C)c2[C@H](OC(C)(C)C)C(=O)O)N(C(=O)c2nc(C)sc2C)CC3)cc1 [Example 26, (S)-2-(tert-Butoxy)-2-(1-(2,5-dimethylthiazole-4-carbonyl)-6-methyl-4-(p-tolyl)indolin-5-yl)acetic acid] | 123
24 | COc1c(F)cccc1C(=O)N1CCc2c1cc(C)c([C@H](OC(C)(C)C)C(=O)O)c2-c1ccc(C)cc1 [Example 27, (S)-2-(tert-Butoxy)-2-(1-(3-fluoro-2-methoxybenzoyl)-6-methyl-4-(p-tolyl)indolin-5-yl)acetic acid] | 7
25 | Cc1ccc(-c2c3c(cc(C)c2[C@H](OC(C)(C)C)C(=O)O)N(S(=O)(=O)C2CCCCC2)CC3)cc1 [Example 28, (S)-2-(tert-Butoxy)-2-(1-(cyclohexylsulfonyl)-6-methyl-4-(p-tolyl)indolin-5-yl)acetic acid] | 11400
26 | Cc1ccc(-c2c3c(cc(C)c2[C@H](OC(C)(C)C)C(=O)O)N(C(=O)c2cccc(F)c2)CC3)cc1 [Example 29, (S)-2-(tert-Butoxy)-2-(1-(3-fluorobenzoyl)-6-methyl-4-(p-tolyl)indolin-5-yl)acetic acid] | 17
27 | Cc1ccc(-c2c3c(cc(C)c2[C@H](OC(C)(C)C)C(=O)O)N(C(=O)c2cccc(F)c2C)CC3)cc1 [Example 30, (S)-2-(tert-Butoxy)-2-(1-(3-fluoro-2-methylbenzov)-6-methyl-4-(p-tolyl)indolin-5-yl)acetic acid] | 8
28 | Cc1ccc(-c2c3c(cc(C)c2[C@H](OC(C)(C)C)C(=O)O)N(C(=O)c2ccc(C)c(F)c2)CC3)cc1 [Example 31, (S)-2-(tert-Butoxy)-2-(1-(3-fluoro-4-methylbenzov)-6-methyl-4-(p-tolyl)indolin-5-yl)acetic acid] | 12
29 | Cc1ccc(-c2c3c(cc(C)c2[C@H](OC(C)(C)C)C(=O)O)N(C(=O)c2cc(C)cc(F)c2)CC3)cc1 [Example 32, (S)-2-(tert-Butoxy)-2-(1-(3-fluoro-5-methylbenzov)-6-methyl-4-(p-tolyl)indolin-5-yl)acetic acid] | 11
30 | Cc1ccc(-c2c3c(cc(C)c2[C@H](OC(C)(C)C)C(=O)O)N(C(=O)c2cc(F)ccc2C)CC3)cc1 [Example 33] | 13
31 | Cc1ccc(-c2c3c(cc(C)c2[C@H](OC(C)(C)C)C(=O)O)N(C(=O)Cc2ccc(F)c(F)c2)CC3)cc1 [Example 34, (S)-2-(tert-Butoxy)-2-(1-(2-(3,4-difluorophenyl)acetyl)-6-methyl-4-(p-tolyl)indolin-5-yl)acetic acid] | 69
32 | Cc1ccc(-c2c3c(cc(C)c2[C@H](OC(C)(C)C)C(=O)O)N(S(=O)(=O)c2ccc(F)c(F)c2)CC3)cc1 [Example 35, (S)-2-(tert-Butoxy)-2-(1-((3,4-difluorophenyl)sulfonyl)-6-methyl-4-(p-tolyl)indolin-5-yl)acetic acid] | 9800
33 | Cc1ccc(-c2c3c(cc(C)c2[C@H](OC(C)(C)C)C(=O)O)N(S(=O)(=O)N2CCCCC2)CC3)cc1 [Example 36, (S)-2-(tert-Butoxy)-2-(6-methyl-1-(piperidin-1-ylsulfonyl)-4-(p-tolyl)indolin-5-yl)acetic acid] | 65
34 | Cc1ccc(-c2c3c(cc(C)c2[C@H](OC(C)(C)C)C(=O)O)N(C(=O)NC2CCCCC2)CC3)cc1 [Example 37, (S)-2-(tert-Butoxy)-2-(1-(cyclohexylcarbamoyl)-6-methyl-4-(p-tolyl)indolin-5-yl)acetic acid] | 80
35 | Cc1ccc(-c2c3c(cc(C)c2[C@H](OC(C)(C)C)C(=O)O)N(C(=O)c2ccccn2)CC3)cc1 [Example 38, (S)-2-(tert-Butoxy)-2-(6-methyl-1-picolinoyl-4-(p-tolyl)indolin-5-yl)acetic acid] | 18
36 | Cc1ccc(-c2c3c(cc(C)c2[C@H](OC(C)(C)C)C(=O)O)N(C(=O)c2cccnc2)CC3)cc1 [Example 39, (S)-2-(tert-Butoxy)-2-(6-methyl-1-nicotinoyl-4-(p-tolyl)indolin-5-yl)acetic acid] | 27
